Usually IC50 stands for the concentration that gives 50% inhibition.

Data on 26 compounds can be found in patent publication US20240247015A1, “PHOSPHORUS DERIVATIVES AS NOVEL SOS1 INHIBITORS” (BAYER AKTIENGESELLSCHAFT, priority 2021, published 2024).

interaction of human SOS1 (SOS1) with human K-RasG12C, sequence (Q07889 564-1049 limits assumed): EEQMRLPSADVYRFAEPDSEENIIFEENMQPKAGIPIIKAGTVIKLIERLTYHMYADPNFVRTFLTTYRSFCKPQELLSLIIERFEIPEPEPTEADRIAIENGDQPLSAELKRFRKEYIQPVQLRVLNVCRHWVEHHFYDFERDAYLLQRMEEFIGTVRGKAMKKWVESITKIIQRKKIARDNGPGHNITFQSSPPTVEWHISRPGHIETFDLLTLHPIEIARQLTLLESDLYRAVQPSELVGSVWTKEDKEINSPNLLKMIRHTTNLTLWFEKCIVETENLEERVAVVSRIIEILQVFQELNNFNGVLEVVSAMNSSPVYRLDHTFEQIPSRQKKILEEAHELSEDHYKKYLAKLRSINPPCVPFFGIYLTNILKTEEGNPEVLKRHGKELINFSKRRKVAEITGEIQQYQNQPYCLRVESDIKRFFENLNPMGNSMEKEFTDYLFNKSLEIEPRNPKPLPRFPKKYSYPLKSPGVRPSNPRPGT

The test addresses interaction of human SOS1 (SOS1) with human K-RasG12C (Homo sapiens (Human), UniProt Q07889). In words: Biochemical assay: hK-RasG12C interaction assay with hSOS1 (HTRF). It is filed as binding. The note with it: GST-hK-RasG12C with His-hSOS1, 60 min incubation at 20° C., mean, read-out: K-RasG12C - SOS interaction assay IC50 (mean). Summed up:
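Compounds, duplicates at 11 concentrations from 0.073 nM to 20 µM, were preincubated 2 min with 10 nM GST-hK-RasG12C, then 20 nM His-hSOS1 was added, all at 20 °C. After 60 min, 665/620 nm HTRF ratio normalized to DMSO and SOS1-free controls; IC50 by 4-parameter fit.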
`CC(=O)N1CCP(=O)(c2cc3c(N[C@H](C)c4cccc(C(F)(F)F)c4C)nc(C)nc3c(C(F)F)n2)CC1` [Example 36, 1-acetyl-4-[8-(difluoromethyl)-2-methyl-4-({(1R)-1-[2-methyl-3-(trifluoromethyl)phenyl]ethyl}amino)pyrido[3,4-d]pyrimidin-6-yl]-1,4lambda^5-azaphosphinan-4-one]: the concentration for half-maximal inhibition (IC50) turned out to be 16.7 nM.

Consider `COCc1nc(P2(=O)CCN(C(C)=O)CC2)cc2c(N[C@H](C)c3cccc(C(F)(F)F)c3C)nc(C)nc12` [Example 37, 1-acetyl-4-[8-(methoxymethyl)-2-methyl-4-({(1R)-1-[2-methyl-3-(trifluoromethyl)phenyl]ethyl}amino)pyrido[3,4-d]pyrimidin-6-yl]-1,4lambda^5-azaphosphinan-4-one], for which the half-maximal inhibitory concentration (IC50) was determined as 9.69 nM.

For `Cc1nc(N[C@H](C)c2cccc(C(F)(F)F)c2C)c2cc(P3(=O)CCN(c4cnn(C)c4)CC3)ncc2n1` [Example 39, 4-[2-methyl-4-({(1R)-1-[2-methyl-3-(trifluoromethyl)phenyl]ethyl}amino)pyrido[3,4-d]pyrimidin-6-yl]-1-(1-methyl-1H-pyrazol-4-yl)-1,4lambda^5-azaphosphinan-4-one], the IC50 was found to be 11.1 nM.

Consider `Cc1nc(N[C@H](C)c2cccc(C(F)(F)F)c2C)c2cc(P3(=O)CCN(c4ccn(C)n4)CC3)ncc2n1` [Example 40, 4-[2-methyl-4-({(1R)-1-[2-methyl-3-(trifluoromethyl)phenyl]ethyl}amino)pyrido[3,4-d]pyrimidin-6-yl]-1-(1-methyl-1H-pyrazol-3-yl)-1,4lambda^5-azaphosphinan-4-one], for which the IC50 was 18.3 nM.

In the case of `Cc1nc(N[C@H](C)c2cccc(C(F)(F)F)c2C)c2cc(P3(=O)CCN(S(C)(=O)=O)CC3)ncc2n1` [Example 41, 1-(methanesulfonyl)-4-[2-methyl-4-({(1R)-1-[2-methyl-3-(trifluoromethyl)phenyl]ethyl}amino)pyrido[3,4-d]pyrimidin-6-yl]-1,4lambda^5-azaphosphinan-4-one], the half-maximal inhibitory concentration (IC50) was determined as 174 nM.

As for `CC(=O)N1CCP(=O)(c2cc3c(N[C@H](C)c4cccc(C(F)(F)CO)c4F)nc(C)nc3cn2)CC1` [Example 42, 1-acetyl-4-[4-({(1R)-1-[3-(1,1-difluoro-2-hydroxyethyl)-2-fluorophenyl]ethyl}amino)-2-methylpyrido[3,4-d]pyrimidin-6-yl]-1,4lambda^5-azaphosphinan-4-one], the IC50 came to 4.87 nM.

Take `CC(=O)N1CCP(=O)(c2cc3c(N[C@H](C)c4cccc(C(F)(F)C(=O)O)c4F)nc(C)nc3cn2)CC1` [Example 43, {3-[(1R)-1-{[6-(1-acetyl-4-oxo-1,4lambda^5-azaphosphinan-4-yl)-2-methylpyrido[3,4-d]pyrimidin-4-yl]amino}ethyl]-2-fluorophenyl}(difluoro)acetic acid]: the half-inhibitory concentration (IC50) was determined as 375 nM.

For the compound `CC(=O)N1CCP(=O)(c2cc3c(N[C@H](C)c4cccc(C(F)(F)C(=O)NC5CC5)c4F)nc(C)nc3cn2)CC1` [Example 44, 2-{3-[(1R)-1-{[6-(1-acetyl-4-oxo-1,4lambda^5-azaphosphinan-4-yl)-2-methylpyrido[3,4-d]pyrimidin-4-yl]amino}ethyl]-2-fluorophenyl}-N-cyclopropyl-2,2-difluoroacetamide], the IC50 worked out at 15.9 nM.

With `CC(=O)N1CCP(=O)(c2cc3c(N[C@H](C)c4cccc(C(F)(F)C(=O)N(C)C)c4F)nc(C)nc3cn2)CC1` [Example 45, 2-{3-[(1R)-1-{[6-(1-acetyl-4-oxo-1,4lambda^5-azaphosphinan-4-yl)-2-methylpyrido[3,4-d]pyrimidin-4-yl]amino}ethyl]-2-fluorophenyl}-2,2-difluoro-N,N-dimethylacetamide], the half-inhibitory concentration (IC50) is 17 nM.

In the case of `CC(=O)N1CCP(=O)(c2cc3c(N[C@H](C)c4cccc(C(F)(F)C(N)=O)c4F)nc(C)nc3cn2)CC1` [Example 46, 2-{3-[(1R)-1-{[6-(1-acetyl-4-oxo-1,4lambda^5-azaphosphinan-4-yl)-2-methylpyrido[3,4-d]pyrimidin-4-yl]amino}ethyl]-2-fluorophenyl}-2,2-difluoroacetamide], the half-inhibitory concentration (IC50) is 6.1 nM.

Consider `CNC(=O)C(F)(F)c1cccc([C@@H](C)Nc2nc(C)nc3cnc(P4(=O)CCN(C(C)=O)CC4)cc23)c1F` [Example 47, 2-{3-[(1R)-1-{[6-(1-acetyl-4-oxo-1,4lambda^5-azaphosphinan-4-yl)-2-methylpyrido[3,4-d]pyrimidin-4-yl]amino}ethyl]-2-fluorophenyl}-2,2-difluoro-N-methylacetamide], for which the IC50 is 13.8 nM.

In the case of `Cc1nc(N[C@H](C)c2cccc(C(F)(F)C(N)=O)c2F)c2cc(P(C)(C)=O)ncc2n1` [Example 48, 2-{3-[(1R)-1-{[6-(dimethylphosphoryl)-2-methylpyrido[3,4-d]pyrimidin-4-yl]amino}ethyl]-2-fluorophenyl}-2,2-difluoroacetamide], the IC50 came out at 29.3 nM.

In the case of `CCNC(=O)C(F)(F)c1cccc([C@@H](C)Nc2nc(C)nc3cnc(P(C)(C)=O)cc23)c1F` [Example 49, 2-{3-[(1R)-1-{[6-(dimethylphosphoryl)-2-methylpyrido[3,4-d]pyrimidin-4-yl]amino}ethyl]-2-fluorophenyl}-N-ethyl-2,2-difluoroacetamide], the IC50 is 87.5 nM.

Consider `Cc1nc(N[C@H](C)c2cccc(C(F)(F)C(=O)N(C)C)c2F)c2cc(P(C)(C)=O)ncc2n1` [Example 50, 2-{3-[(1R)-1-{[6-(dimethylphosphoryl)-2-methylpyrido[3,4-d]pyrimidin-4-yl]amino}ethyl]-2-fluorophenyl}-2,2-difluoro-N,N-dimethylacetamide], for which the IC50 worked out at 156 nM.

With `CNC(=O)C(F)(F)c1cccc([C@@H](C)Nc2nc(C)nc3cnc(P(C)(C)=O)cc23)c1F` [Example 51, 2-{3-[(1R)-1-{[6-(dimethylphosphoryl)-2-methylpyrido[3,4-d]pyrimidin-4-yl]amino}ethyl]-2-fluorophenyl}-2,2-difluoro-N-methylacetamide], the IC50 stood at 86.3 nM.

Regarding `Cc1nc(N[C@H](C)c2cccc(C(F)F)c2F)c2cc(P3(=O)CCN(C)CC3)ncc2n1` [Example 52, 4-[4-({(1R)-1-[3-(difluoromethyl)-2-fluorophenyl]ethyl}amino)-2-methylpyrido[3,4-d]pyrimidin-6-yl]-1-methyl-1,4lambda^5-azaphosphinan-4-one], the half-maximal inhibitory concentration (IC50) is 35.5 nM.

Consider `Cc1nc(N[C@H](C)c2cccc(C(F)(F)F)c2C)c2cc(P3(=O)CCN(C(C)C)CC3)ncc2n1` [Example 53, 4-[2-methyl-4-({(1R)-1-[2-methyl-3-(trifluoromethyl)phenyl]ethyl}amino)pyrido[3,4-d]pyrimidin-6-yl]-1-(propan-2-yl)-1,4lambda^5-azaphosphinan-4-one], for which the half-inhibitory concentration (IC50) turned out to be 65.4 nM.

Take `Cc1nc(N[C@H](C)c2cccc(C(F)(F)C(C)(C)O)c2F)c2cc(P3(=O)CCN(Cc4ccccc4)CC3)ncc2n1` [Example 54, 1-benzyl-4-[4-({(1R)-1-[3-(1,1-difluoro-2-hydroxy-2-methylpropyl)-2-fluorophenyl]ethyl}amino)-2-methylpyrido[3,4-d]pyrimidin-6-yl]-1,4lambda^5-azaphosphinan-4-one]: the 50% inhibitory concentration (IC50) is 22.5 nM.

Turning to `Cc1nc(N[C@H](C)c2cccc(C(F)(F)F)c2F)c2cc(P(C)(C)=O)ncc2n1` [Example 55, 6-(dimethylphosphoryl)-N-{(1R)-1-[2-fluoro-3-(trifluoromethyl)phenyl]ethyl}-2-methylpyrido[3,4-d]pyrimidin-4-amine], the half-maximal inhibitory concentration (IC50) turned out to be 26.2 nM.

For the compound `Cc1nc(N[C@H](C)c2cccc(Br)c2F)c2cc(P(C)(C)=O)ncc2n1` [Example 56, N-[(1R)-1-(3-bromo-2-fluorophenyl)ethyl]-6-(dimethylphosphoryl)-2-methylpyrido[3,4-d]pyrimidin-4-amine], the IC50 worked out at 74.1 nM.

With `CC(=O)N1CCP(=O)(c2cc3c(N[C@H](C)c4cccc(C(F)F)c4)nc(C)nc3cn2)CC1` [Example 57, 1-acetyl-4-[4-{{(1R)-1-[3-(difluoromethyl)phenyl]ethyl}amino)-2-methylpyrido[3,4-d]pyrimidin-6-yl]-1,4lambda^5-azaphosphinan-4-one], the IC50 turned out to be 19.3 nM.

For the compound `CC(=O)N1CCP(=O)(c2cc3c(N[C@H](C)c4cc(C)cc(C(F)(F)F)c4C)nc(C)nc3cn2)CC1` [Example 58, 1-acetyl-4-[4-{{(1R)-1-[2,5-dimethyl-3-(trifluoromethyl)phenyl]ethyl}amino)-2-methylpyrido[3,4-d]pyrimidin-6-yl]-1,4lambda^5-azaphosphinan-4-one], the IC50 amounted to 6.33 nM.

For `Cc1nc(N[C@H](C)c2cccc(C(F)(F)CO)c2F)c2cc(P3(=O)CC=CC3)ncc2n1` [Example 59, 1-[4-{{(1R)-1-[3-(1,1-difluoro-2-hydroxyethyl)-2-fluorophenyl]ethyl}amino)-2-methylpyrido[3,4-d]pyrimidin-6-yl]-2,5-dihydro-1H-1lambda^5-phosphol-1-one], the IC50 was found to be 7.06 nM.

As to `[2H]C([2H])(O)C(F)(F)c1cccc([C@@H](C)Nc2nc(C)nc3cnc(P(C)(C)=O)cc23)c1F` [Example 60, 2-{3-[(1R)-1-{[6-(dimethylphosphoryl)-2-methylpyrido[3,4-d]pyrimidin-4-yl]amino}ethyl]-2-fluorophenyl}-2,2-difluoro(^2H2)ethan-1-ol], the IC50 is 13.5 nM.

Consider `[2H]C([2H])(O)C(F)(F)c1cccc([C@@H](C)Nc2nc(C)nc3cnc(P4(=O)CCCC4)cc23)c1F` [Example 61, 1-(4-{[(1R)-1-{3-[1,1-difluoro-2-hydroxy(^2H2)ethyl]-2-fluorophenyl}ethyl]amino}-2-methylpyrido[3,4-d]pyrimidin-6-yl)-1lambda^5-phospholan-1-one], for which the IC50 turned out to be 9.82 nM.

`Cc1nc(N[C@H](C)c2cccc(C(F)(F)CO)c2F)c2cc(P(C)(C)=O)ncc2n1` [Example 62, 2-{3-[(1R)-1-{[6-(dimethylphosphoryl)-2-methylpyrido[3,4-d]pyrimidin-4-yl]amino}ethyl]-2-fluorophenyl}-2,2-difluoroethan-1-ol]: the IC50 stood at 13.5 nM.
